Calls of active or inactive are those of the source.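 How the source made its calls: active means AC50 no more than tenfold above the top dose tested, or full inhibition at every dose with a flat fit (cut at about 19 µM in these data); inconclusive means flat curve fit with inhibition between 30% and 70%, or poor fit; inactive means AC50 more than tenfold above the top dose tested.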
System: HMLE_sh_eGFP viability, CellTiter-Glo luminescence, 72 h
Assay: cytotoxicity in HMLE control line with eGFP shRNA, dose response, counter-screen for HMLE_sh_ECad selective toxicity project, cell-based, HMLE_sh_eGFP, luminescence (AID 463074);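 further: counterscreen control line to flag general toxicity for the HMLE_sh_ECad screen; potency for loss of viability as luminescence drops below DMSO wells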

SMILES | AC50
C(=N\Nc1ncnc2sc3c(c12)CCC3)/c1cccs1 | 7.4 µM
CCOc1cc(N2CCOCC2)c(OCC)cc1NC(=O)CN1CCC(Cc2ccccc2)CC1 | 2.43 µM
CC1=NN(c2ccccc2)C(=O)/C1=C/c1c(O)n(-c2ccc(F)cc2)[nH]c1=O | 15.8 µM
CCCc1cc(-c2nc(-c3ccc(C)cc3)cs2)ccn1 | 5.16 µM
COc1cc(CN2CCN(c3cccc(Cl)c3)CC2)cc(OC)c1OC | 2.58 µM
Cc1cc(N2CCN(C)CC2)nc2ccc(NC(=S)NCCC(C)C)cc12 | 7.91 µM
Cc1cc(C)cc(NS(=O)(=O)c2ccc(Oc3ncc(C(F)(F)F)cc3Cl)cc2)c1 | 4.3 µM
CCCCCc1cc(=O)oc2c(C(CCN3CCCCC3)c3ccc(OC)cc3)c(OC)cc(OC)c12 (stereo not drawn) | 7.47 µM
COc1ccc(NC(=O)c2cc(-c3ccccc3OC)on2)cc1 | 0.983 µM
Cc1ccccc1OCC(O)Cn1c2ccccc2c2ccccc21 (stereo not drawn) | 6.78 µM
CCOc1cc(/C=N/O)cc(Br)c1OCc1ccc(Cl)cc1 | 5.69 µM
c1ccc(CNc2nc(N3CCN(Cc4ccccc4)CC3)nc3ccccc23)cc1 | 3.91 µM
CCn1c2ccccc2c2cc(NS(=O)(=O)c3ccc(C)cc3)ccc21 | 4.53 µM
CNc1ccccc1C(C)(C)c1cc(-c2cc(C)cc(C)c2)no1 | 18.4 µM
O=c1/c(=C\c2cccc(O)c2)sc2nc(-c3ccccc3)c(-c3ccccc3)n12 | 6.21 µM
O=C(c1ccccc1)c1c[nH]c(C(=O)NNc2ccccc2)c1 | 1.53 µM
CC(C)N1CCN(Cc2ccc(OCc3ccccc3)cc2)CC1CCO (stereo not drawn) | 11.5 µM
CC1CCC2C(=O)N(c3ccc(NC4CCCCC4)c([N+](=O)[O-])c3)C(=O)C2C1 (stereo not drawn) | 4.01 µM
C=CCNCCCOc1ccc(Cl)cc1C(C)(C)C | 14.9 µM
CCCCCc1cc(=O)oc2c(C(CCN3CCCC(C)C3)c3ccc4c(c3)OCO4)c(OC)cc(OC)c12 (stereo not drawn) | 6.78 µM
COc1ccc(-c2sc3ccc(N4CCOCC4)cc3c2C#CCCO)cc1 | 4.73 µM
O=C(COCC(=O)Nc1cccc(C(F)(F)F)c1)Nc1cccc(C(F)(F)F)c1 | 7.59 µM

SMILES | AC50
CN1C2CCC1/C(=C\c1ccccc1)C(=O)/C2=C\c1ccccc1 | 4.24 µM
CN(C)/N=C/C=C1\CCC/C(=C\c2ccc(F)c(F)c2)C1=O | 10.5 µM
CC1CCN(CC(CS(=O)(=O)c2ccc([N+](=O)[O-])cc2)N2CCC(C)CC2)CC1 (stereo not drawn) | 6.58 µM
CNC(=S)N/N=C/c1cn(Cc2ccc(C)cc2)c2ccccc12 | 5.94 µM
O=C(/C=C/c1ccc(Cl)c([N+](=O)[O-])c1)Nc1cccc(NC(=O)c2ccco2)c1 | 1.69 µM
Cc1ccc(OC/C(O)=C(\C#N)c2nc3ccccc3s2)cc1 | 6.81 µM
COc1ccc(C(=O)NNc2ccccc2)cc1OC | 1.83 µM
COc1ccc(-c2c(-c3cc(OC)cc(OC)c3)n(C)c3ccc(-c4cc(F)cc(OC)c4)cc23)cc1 | > 19.5 µM (inactive)
COc1cc(CNC2CCCC2)cc(Cl)c1OCc1ccccc1Cl | 6.95 µM
Fc1ccc2[nH]c3c(N4CCc5ccccc5C4)ncnc3c2c1 | 7.36 µM
CCN1C(=O)C(CC(=O)Nc2ccc(F)cc2)N(CCCN2CCN(c3ccc(F)cc3)CC2)C1=S (stereo not drawn) | 6.83 µM
CCCCCCCCOC(=O)c1c(CSC(=N)N)n(C)c2cc(Br)c(OC(C)=O)cc12 | 3.72 µM
Cn1nnnc1Sc1ncnc2scc(-c3ccc(Cl)cc3)c12 | 3.3 µM
NC(=O)CC(NC(=O)Cc1cccc2ccccc12)c1ccc(NCc2ccccc2)c([N+](=O)[O-])c1 (stereo not drawn) | 5.84 µM
O=[N+]([O-])c1ccc(-c2nc(Nc3cccc(O)c3)c3ccccc3n2)cc1 | 3.89 µM
CCOC(=O)CSC1=C(C#N)C(c2sccc2C)CC(=O)N1 (stereo not drawn) | > 19.5 µM (inactive)
COc1cc(/C=C/c2noc(-c3ccccc3O)n2)ccc1OC(C)=O | > 19.5 µM (inactive)
COc1ccc(/C=N/Nc2cc(N3CCCC3)nc(N3CCCC3)n2)cc1 | 5.14 µM
O=C(Nc1nccs1)c1ccc(COc2ccccc2Cl)o1 | 10.8 µM
CSc1nc(C)cc(OCC(=O)N/N=C/c2ccccc2O)n1 | 11 µM
Cc1sc2ncnc(N3CCC(C(=O)N(C)CC(=O)Nc4ccc(Cl)c(C(F)(F)F)c4)CC3)c2c1C | 3.93 µM
